Laboratory results: patent US20080287443A1, “Treatment of Subgingival Pocket Infections” (priority 2005, published 2008)
“Also recorded” adds a separate entry of the source.

Legend:
[1] = human, in vivo
Excerpt: (§1) In this example delmopinol was used as a rinse to treat a patient who had been cared for over a 2-year period. They had been diagnosed with Morbus Crohn (Crohn's Disease) and with oral complications presenting as severe gingival lesions and swollen gingiva. They had been treated with antibiotics (Zithromax) in the past to control their oral infections and routinely used Chlorhexidine 0.12% rinse solution to control the recolonization of pathogens. Chlorhexidine is used routinely for the control of gingival infection/inflammations as an adjunct to other oral hygiene measures. There are, however side-effects with Chlorhexidine, i.e. staining of teeth, loss of taste and a burning sensation. The alcohol content in the Chlorhexidine solution may also cause some problems for patients. The potential burning sensation was in this case problematic and the patient was not compliant with Chlorhexidine rinsing. The treatment routine was changed and they were asked to rinse with 0.2% w/v delmopinol once daily for 14 days (instead of chlorhexidine). They had been given a professional cleaning of their teeth prior to rinsing with Delmopinol but no systemic antibiotics were prescribed. Zithromax was used 6 months prior the current treatment. The following clinical observations were made: 1.

gingival inflammation = experiment: Clinical observation of gingival inflammation after delmopinol rinsing; assay type: in vivo, human; conditions: one patient, 0.2% w/v rinse once daily for 14 days
Excerpt: as §1, with “2.” for “1.”

[2] = test system: total bacterial load from sub-gingival samples; experiment: Total bacterial load in sub-gingival samples from four sub-gingival pockets; assay type: in vivo, human; conditions: pockets 13, 23, 37 and 42; after 2 week rinse vs before; FIG. 1
Excerpt: FIG. 1 illustrates the sub-gingival reduction in bacterial load, in four selected sub-gingival pockets, after a 14 day course of delmopinol rinsing (once daily); and The treatment routine was changed and they were asked to rinse with 0.2% w/v delmopinol once daily for 14 days (instead of chlorhexidine). They had been given a professional cleaning of their teeth prior to rinsing with Delmopinol but no systemic antibiotics were prescribed. Zithromax was used 6 months prior the current treatment.

[3] = test system: Aggregatibacter actinomycetemcomitans; experiment: Level of key pathogen in sub-gingival samples; assay type: in vivo; conditions: sub-gingival samples after 14 day rinse; FIG. 2
Excerpt: (§2) FIG. 2 illustrates the reduction of Treponema denticola and Aggregatibacter actinomycetemcomitans after the 14 day course of delmopinol treatment. The treatment routine was changed and they were asked to rinse with 0.2% w/v delmopinol once daily for 14 days (instead of chlorhexidine). They had been given a professional cleaning of their teeth prior to rinsing with Delmopinol but no systemic antibiotics were prescribed. Zithromax was used 6 months prior the current treatment. In addition, a reduction of some key pathogens were found.

Treponema denticola = experiment: Level of key pathogen in sub-gingival samples; assay type: in vivo; conditions: sub-gingival samples after 14 day rinse; FIG. 2
Excerpt: as §2

Porphyromonas gingivalis = experiment: Level of key pathogen in sub-gingival samples; assay type: in vivo; conditions: sub-gingival samples after 14 day rinse
Excerpt: as §2, with “The” for “FIG. 2 illustrates the reduction of Treponema denticola and Aggregatibacter actinomycetemcomitans after the 14 day course of delmopinol treatment. The”

Tannerella forsythia = experiment: Level of key pathogen in sub-gingival samples; assay type: in vivo; conditions: sub-gingival samples after 14 day rinse
Excerpt: as §2, with “The” for “FIG. 2 illustrates the reduction of Treponema denticola and Aggregatibacter actinomycetemcomitans after the 14 day course of delmopinol treatment. The”

In the case of `CCCC(CCC)CCCC1COCCN1CCO` (stereo not shown) [delmopinol, 3-(4-propyl-heptyl)-4-(2-hydroxyethyl)morpholine], the “side-effects reported by the patient (staining, burning sensation)” value [1] is reported as “no staining or burning sensation”, the “extent of gingival inflammation (bleeding on probing, gingival swelling, ulcerations)” value (gingival inflammation) is reported as “clinically reduced” and the “total bacterial load from sub-gingival samples” value [2] is reported as “significant reduction”. For the same compound, the “level of Aggregatibacter actinomycetemcomitans” value [3] was “significantly reduced; also recorded: eliminated”, the “level of Treponema denticola” value (Treponema denticola) was “significantly reduced” and the “level of Porphyromonas gingivalis” value (Porphyromonas gingivalis) was “not reduced”. For the same compound, the “level of Tannerella forsythia” value (Tannerella forsythia) was “not reduced”.
